Values after ≈ are worked out from the molar mass of the structure shown. Like-named read-outs stand apart in the source and are kept apart here.
Tests used:
S. epidermidis IFO 12293 = assay: Antibacterial action, MIC against standard strain S. epidermidis IFO 12293; format: cell-based; conditions: Staphylococcus epidermidis
Description: (§1) The minimum inhibitory concentrations (MIC; μg/ml) of specimen compounds against standard strains [S. aureus 209P (S.a.), S. epidermidis IFO 12293 (S.e.) and P. aeruginosa IFO 3445 (P.a.)] were determined in accordance with the standard method (CHEMOTHERAPY, 29(1), 76, 1981) prescribed by The Japan Chemotherapeutic Association.

S. aureus 209P = assay: Antibacterial action, MIC against standard strain S. aureus 209P (standard method of the Japan Chemotherapeutic Association); format: cell-based; conditions: Staphylococcus aureus, read-out: MIC S.a.
Description: as §1

P. aeruginosa IFO 3445 = assay: Antibacterial action, MIC against standard strain P. aeruginosa IFO 3445; format: cell-based; conditions: Pseudomonas aeruginosa
Description: as §1

[1] = Biliary recovery rate upon oral administration to rats; format: in vivo, male SD rats; conditions: bile, rat, 20 mg/kg or 10 mg/kg, 0-24 hours, after hydrolysis with the alkali
Description: (§2) The recovery rates in both urine and bile of compounds according to the present invention upon oral administration to rats were determined to evaluate their absorbability and excretory behavior.
(2) Biliary Recovery Rate
(§3) A polyethylene tube was inserted into the common bile ducts of male SD rats aged 6 weeks fasted overnight under etherization. After the anesthetic wore away, the rats were forced to orally administer each of the specimen compounds in the same manner as in the item (a) to collect bile till 24 hours after the administration. The concentration of the specimen compound in the bile was determined in the same manner as in the item (a) after hydrolysis with an alkali (0.1N, NaOH, 37° C., 1 hour) or without being subjected to any treatment, thereby finding its recovery rate in bile.

[2] = Total recovery rate in urine and bile upon oral administration to rats; format: in vivo, male SD rats; conditions: rat, 20 mg/kg or 10 mg/kg, urine plus bile, 0-24 hours
Description: as §2
(§4) Male SD rats aged 6 weeks fasted overnight were forced to orally administer a 0.5% methyl cellulose suspension (20 mg/10 ml/kg or 10 mg/10 ml/kg) of each of specimen compounds using a peroral sound. Urine was collected twice in the course of from 0 up to 6 hours and from 6 up to 24 hours after the administration. The concentration of the specimen compound in the urine was determined by a paper disk method using Bacillus subtilis ATCC 6633 as a tester strain to find its recovery rate in urine.
as §3

[3] = Urinary recovery rate upon oral administration to rats; format: in vivo, male SD rats; conditions: urine, rat, 20 mg/kg or 10 mg/kg, paper disk method; for dose excreted at 6 h: 0-6 hours; for dose excreted at 24 h: 6-24 hours
Description: as §4, with “The recovery rates in both urine and bile of compounds according to the present invention upon oral administration to rats were determined to evaluate their absorbability and excretory behavior. (a) Urinary Recovery Rate Male” for “Male”

[4] = IFO12293, S. epidermidis IFO 12293, read-out: MIC S.e.
[5] = IFO3445, P. aeruginosa IFO 3445, read-out: MIC P.a.

| MIC (S. epidermidis IFO 12293; [4]) [µg/mL] | MIC (S. aureus 209P; S. aureus 209P) [µg/mL] | MIC (P. aeruginosa IFO 3445; [5]) [µg/mL] | dose excreted at 24 h [1] [%] | dose excreted at 24 h [2] [%] | dose excreted at 6 h [3] [%] | dose excreted at 24 h [3] [%] | SMILES | MIC (S. epidermidis IFO 12293; IFO12293, read-out: MIC S.e.) [µg/mL] | MIC (S. aureus 209P; 209P) [µg/mL] | MIC (P. aeruginosa IFO 3445; IFO3445, read-out: MIC P.a.) [µg/mL] |
| --- | --- | --- | --- | --- | --- | --- | --- | --- | --- | --- |
|  |  |  |  |  |  |  | O=C(O)c1cn(C2CC2)c2cc(N3CCNCC3)c(F)cc2c1=O [Cyprofloxacin, reference compound] | 0.78 (≈ 2.35 µM) | 0.1 (≈ 0.302 µM) | 0.39 (≈ 1.18 µM) |
| 0.05 (≈ 0.121 µM) | 0.013 (≈ 0.0314 µM) | 0.39 (≈ 0.942 µM) |  |  |  |  | CNc1c(F)cc2c(=O)c(C(=O)O)cn(-c3cc(N)c(F)cc3Cl)c2c1Cl [Example 19, 1-(5-Amino-2-chloro-4-fluorophenyl)-8-chloro-6-fluoro-7-methylamino-4-oxo-1,4-dihydroquinoline-3-carboxylic Acid] |  |  |  |
| 0.2 (≈ 0.51 µM) | 0.05 (≈ 0.127 µM) | 0.78 (≈ 1.99 µM) |  |  |  |  | C[C@@H]1CN(c2c(F)c(N)c3c(=O)c(C(=O)O)cn(C4CC4)c3c2F)C[C@H](C)N1 [Sparfloxacin, reference compound] |  |  |  |
| 0.2 (≈ 0.495 µM) | 0.05 (≈ 0.124 µM) | 0.39 (≈ 0.965 µM) | 9.2 | 40.5 | 19 | 12.3 | NC1CCN(c2nc3c(cc2F)c(=O)c(C(=O)O)cn3-c2ccc(F)cc2F)C1 (stereo not drawn) [Tosufloxacin, reference compound] |  |  |  |
|  |  |  | 11.1 | 21.5 | 7.6 | 2.7 | Nc1cc(-n2cc(C(=O)O)c(=O)c3cc(F)c(N4CC(N)C4)c(Cl)c32)c(F)cc1F [Referential compound, 7(3-Aminoazetidin-1-yl)-1-(5-amino-2,4-difluoro-phenyl)-8-chloro-6-fluoo-4-oxo-1,4-dihydroquinoline-3-carboxylic acid, reference compound] |  |  |  |
| 0.05 (≈ 0.132 µM) | 0.013 (≈ 0.0344 µM) | 0.78 (≈ 2.06 µM) |  |  |  |  | COc1c(F)cc2c(=O)c(C(=O)O)cn(-c3cc(N)c(F)cc3F)c2c1C [Example 99, 1-(5-Amino-2,4-difluorophenyl)-6-fluoro-7-methoxy-8-methyl-4-oxo-1,4-dihydroquinoline-3-carboxylic Acid] |  |  |  |
| 0.05 (≈ 0.13 µM) | 0.013 (≈ 0.0339 µM) | 0.2 (≈ 0.521 µM) | 90 | 113 | 9.7 | 13.7 | Nc1cc(-n2cc(C(=O)O)c(=O)c3cc(F)c(N)c(Cl)c32)c(F)cc1F [Example 11, 7-Amino-1-(5-amino-2,4-difluorophenyl)-8-chloro-6-fluoro-4-oxo-1,4-dihydroquinoline-3-carboxylic Acid] |  |  |  |
| 0.013 (≈ 0.0331 µM) | 0.013 (≈ 0.0331 µM) | 0.39 (≈ 0.992 µM) |  |  |  |  | CNc1c(F)c(O)c2c(=O)c(C(=O)O)cn(-c3cc(N)c(F)cc3F)c2c1C [Example 98, 1-(5-Amino-2,4-difluorophenyl)-6-fluoro-5-hydroxy-8-methyl-7-methylamino-4-oxo-1,4-dihydroquinoline-3-carboxylic Acid] |  |  |  |
| 0.025 (≈ 0.0593 µM) | 0.013 (≈ 0.0309 µM) | 0.78 (≈ 1.85 µM) |  |  |  |  | Cc1c(NCCCO)c(F)cc2c(=O)c(C(=O)O)cn(-c3cc(N)c(F)cc3F)c12 [Example 88, 1-(5-Amino-2,4-difluorophenyl)-8-methyl-6-fluoro-7-(3-hydroxy-n-propylamino)-4-oxo-1,4-dihydroquinoline-3-carboxylic Acid] |  |  |  |
| 0.025 (≈ 0.0606 µM) | 0.013 (≈ 0.0315 µM) | 0.2 (≈ 0.485 µM) |  |  |  |  | CNc1c(F)c(N)c2c(=O)c(C(=O)O)cn(-c3cc(N)c(F)cc3F)c2c1Cl [Example 70, 5-Amino-1-(5-amino-2,4-difluorophenyl)-8-chloro-6-fluoro-7-methylamino-4-oxo-1,4-dihydroquinoline-3-carboxylic Acid] |  |  |  |
| 0.013 (≈ 0.0332 µM) | 0.006 (≈ 0.0153 µM) | 0.39 (≈ 0.997 µM) |  |  |  |  | CNc1c(F)c(C)c2c(=O)c(C(=O)O)cn(-c3cc(N)c(F)cc3F)c2c1C [Example 59, 1-(5-Amino-2,4-difluorophenyl)-6-fluoro-5,8-dimethyl-7-methylamino-4-oxo-1,4-dihydroquinoline-3-carboxylic Acid] |  |  |  |
| 0.025 (≈ 0.0627 µM) | 0.006 (≈ 0.015 µM) | 0.39 (≈ 0.978 µM) |  |  |  |  | CNc1c(F)cc2c(=O)c(C(=O)O)cn(-c3nc(N)c(F)cc3F)c2c1Cl [Example 28, 1-(6-Amino-3,5-difluoropyridin-2-yl)-8-chloro-6-fluoro-7-methylamino-4-oxo-1,4-dihydroquinoline-3-carboxylic Acid] |  |  |  |
| 0.05 (≈ 0.133 µM) | 0.013 (≈ 0.0345 µM) | 0.39 (≈ 1.03 µM) |  |  |  |  | CNc1c(F)cc2c(=O)c(C(=O)O)cn(-c3cc(N)c(F)cc3F)c2c1C [Example 16, 1-(5-Amino-2,4-difluorophenyl)-6-fluoro-8-methyl-7-methylamino-4-oxo-1,4-dihydroquinoline-3-carboxylic Acid] |  |  |  |
| 0.013 (≈ 0.0316 µM) | 0.006 (≈ 0.0146 µM) | 0.2 (≈ 0.486 µM) |  |  |  |  | CNc1c(F)c(C)c2c(=O)c(C(=O)O)cn(-c3cc(N)c(F)cc3F)c2c1Cl [Example 56, 1-(5-Amino-2,4-difluorophenyl)-8-chloro-6-fluoro-5-methyl-7-methylamino-4-oxo-1,4-dihydroquinoline-3-carboxylic Acid] |  |  |  |
| 0.05 (≈ 0.138 µM) | 0.013 (≈ 0.0358 µM) | 0.1 (≈ 0.275 µM) | 81.7 | 97.3 | 4.8 | 10.8 | Cc1c(N)c(F)cc2c(=O)c(C(=O)O)cn(-c3cc(N)c(F)cc3F)c12 [Example 12, 7-Amino-1-(5-amino-2,4-difluorophenyl)-6-fluoro-8-methyl-4-oxo-1,4-dihydroquinoline-3-carboxylic Acid] |  |  |  |
| 0.39 (≈ 1.08 µM) | 0.2 (≈ 0.553 µM) | 0.78 (≈ 2.16 µM) | 48.3 | 83.2 | 21.2 | 13.7 | C[C@H]1COc2c(N3CCN(C)CC3)c(F)cc3c(=O)c(C(=O)O)cn1c23 [Levofloxacin, reference compound] |  |  |  |
| 0.025 (≈ 0.0564 µM) | 0.006 (≈ 0.0135 µM) | 0.78 (≈ 1.76 µM) |  |  |  |  | CNc1c(F)cc2c(=O)c(C(=O)O)cn(-c3nc(N)c(F)cc3F)c2c1Br [Example 30, 1-(6-Amino-3,5-difluoropyridin-2-yl)-8-bromo-6-fluoro-7-methylamino-4-oxo-1,4-dihydroquinoline-3-carboxylic Acid] |  |  |  |
| 0.013 (≈ 0.0306 µM) | 0.013 (≈ 0.0306 µM) | 0.39 (≈ 0.918 µM) |  |  |  |  | C=CCNc1c(F)cc2c(=O)c(C(=O)O)cn(-c3nc(N)c(F)cc3F)c2c1Cl [Example 77, 7-Allylamino-1-(6-amino-3,5-difluoropyridin-2-yl)-8-chloro-6-fluoro-4-oxo-1,4-dihydroquinoline-3-carboxylic Acid] |  |  |  |
| 0.025 (≈ 0.0629 µM) | 0.013 (≈ 0.0327 µM) | 0.2 (≈ 0.503 µM) | 103 | 107 | 1.2 | 2.6 | CNc1c(F)cc2c(=O)c(C(=O)O)cn(-c3cc(N)c(F)cc3F)c2c1Cl [Example 14, 1-(5-Amino-2,4-difluorophenyl)-8-chloro-6-fluoro-7-methylamino-4-oxo-1,4-dihydroquinoline-3-carboxylic Acid] |  |  |  |
